Measured values as given in US9775832B2, “Pharmaceutical composition for oral administration” (ASTELLAS PHARMA INC., priority 2014, dated 2017).
≈ marks a conversion by molar mass, not a printed value. One block for each molecule: values may come before it.

Experiments:
[1] = Measurement of related substances by HPLC after storage in glass bottles (Experimental Example 4); format: physicochemical
Description: The solid dispersion of Example 1 and the amorphous form of compound A of Example 2 were put into glass bottles, and the bottles were allowed to stand under the predetermined conditions, after being sealed or without being sealed, and the amount of each related substance of compound A was measured by an HPLC method.
The measurement of related substances was carried out in accordance with the following conditions (the following tests for related substances were carried out in a similar fashion.): • As a HPLC column, Unison UK-Phenyl (particle size=3 μm, 4.6 mm (inner diameter)×25 cm, manufactured by Imtakt), or its equivalent, was used, and maintained at 40° C. • As mobile phase A, a mixed solution (4:1) of a perchlorate solution (pH 4.0) and methanol was used. • As mobile phase B, acetonitrile was used. • Sample solutions were prepared by diluting samples with a mixed solution of mobile phase A/mobile phase B (7:3) so that the concentration of compound A became 250 μg/mL. • Related substances were measured using an ultraviolet absorption spectrophotometer (wavelength: 225 nm), in accordance with the gradient program shown in Table 3 below, and at a flow rate in which the retention time of compound A was about 26 minutes. The percentage of the peak area of each related substance was calculated, as a percentage with respect to the total peak area of compound A and its related substances.

[2] = Measurement of solubility (Experimental Example 3); format: physicochemical; settings: Phosphate buffer, room temperature, shaken 120 minutes
From the text: The improved solubility of compound A by amorphization was observed.

[3] = Powder X-ray diffraction test, crystallinity before and after storage (Experimental Example 5); format: physicochemical; settings: at least 70° C. for 9 days, or 40° C., 75% RH for 1 month; FIG. 2
Description: The amorphous form of compound A of Example 2 was put into glass bottles, and the bottles were sealed and allowed to stand under the predetermined conditions, and the crystallinity before and after storage was evaluated using a powder X-ray diffraction method. In “40° C., 75% RH for 1 month (opened)”, the storage was carried out under the conditions where the bottle was not sealed.

[4] = Oral absorption test in dog (Experimental Example 6); format: in vivo; settings: 50 mg of compound A
Description: The dogs were made to fast from the evening on the day before the administration (before more than 16 hours from the scheduled administration time) to the final blood collection on the day of the administration (24 hours after the administration). After the end of the final blood collection, food was given in accordance with the feeding amount of the breeding facility (the fasting period was from 24 hours or more to less than 48 hours). Water was not given during a time period from 30 minutes before the administration to 2 hours after the administration, and then, it was free to drink water.

physchem = settings: thermodynamic from solid
[5] = glass bottle not sealed (*), 40° C., 75% RH for 1 month
[6] = glass bottle, sealed, 25° C., 60% RH for 1 month
[7] = glass bottle, sealed, 40° C., 75% RH for 1 month
[8] = glass bottle, sealed, 70° C. for 9 days

- Maximum related substance ([1]; At the beginning of storage): 0.80%
- Total amount of related substances ([1]; At the beginning of storage): 0.88%
- significant increase in related substances ([1]; at least 70° C. for 9 days, 40° C., 75% RH for 1 month, or 25° C., 60% RH for 1 month): not observed
- Maximum related substance [1, 5]: 0.77%
- Maximum related substance, increased amount from the beginning of the storage [1, 5]: (−0.03) %
- Total amount of related substances [1, 5]: 0.98%
- Total amount of related substances, increased amount from the beginning of the storage [1, 5]: (0.10) %
- Maximum related substance [1, 6]: 0.79%
- Maximum related substance, increased amount from the beginning of the storage [1, 6]: (−0.01) %
- Total amount of related substances [1, 6]: 0.99%
- Total amount of related substances, increased amount from the beginning of the storage [1, 6]: (0.11) %
- Maximum related substance [1, 7]: 0.79%
- Maximum related substance, increased amount from the beginning of the storage [1, 7]: (−0.01) %
- Total amount of related substances [1, 7]: 0.99%
- Total amount of related substances, increased amount from the beginning of the storage [1, 7]: (0.11) %
- Maximum related substance [1, 8]: 0.82%
- Maximum related substance, increased amount from the beginning of the storage [1, 8]: (0.02) %
- Total amount of related substances [1, 8]: 0.85%
- Total amount of related substances, increased amount from the beginning of the storage [1, 8]: (−0.03) %
- Solubility ([2]; pH 6.8, 0.10% Sodium lauryl sulfate, listed as Ex. 2): 326 µg/mL (≈ 599 µM)
- Solubility ([2]; pH 6.8, listed as Ex. 2): 75 µg/mL (≈ 138 µM)
- crystallinity after storage (powder X-ray diffraction) [3]: maintained the amorphous state alone
- AUC0-24 h ratio to the suspension of Example 2 [4]: 1.00
- Cmax ratio to the suspension of Example 2 [4]: 1.00
- oral absorbability [4]: good oral absorbability
- Cmax ([4]; plasma, suspension in 0.5% methylcellulose): 793 ± 165 ng/mL
- AUC(0-t) ([4]; plasma, suspension in 0.5% methylcellulose, read-out: AUC0-24 hr): 4920 ± 1220 ng·h/mL
Structure (SMILES): C[C@@H](O)C(=N)NS(=O)(=O)c1cc(C(=O)C(C(=O)c2cc(F)ccc2F)=C2Nc3ccccc3N2)ccc1F [Example 2, (2R)—N-({5-[3-(2,5-difluorophenyl)-2-(1,3-dihydro-2H-benzimidazole-2-ylidene)-3-oxopropanoyl]-2-fluorophenyl}sulfonyl)-2-hydroxypropane imide amide]

- Solubility ([2]; pH 6.8, 0.10% Sodium lauryl sulfate, listed as Compound A in crystalline state): 69 µg/mL (≈ 127 µM)
- Solubility ([2]; pH 6.8, listed as Compound A in crystalline state): 15 µg/mL (≈ 27.5 µM)
- Solubility (physchem; pH 1.2, simulated gastric fluid): ~9.9 µg/mL (≈ 18.2 µM)
- Solubility (physchem; pH 6.8, aqueous buffer): ~9.8 µg/mL (≈ 18 µM)
Structure (SMILES): C[C@@H](O)C(=N)NS(=O)(=O)c1cc(C(=O)C(C(=O)c2cc(F)ccc2F)=C2Nc3ccccc3N2)ccc1F [Compound A, (2R)—N-({5-[3-(2,5-difluorophenyl)-2-(1,3-dihydro-2H-benzimidazole-2-ylidene)-3-oxopropanoyl]-2-fluorophenyl}sulfonyl)-2-hydroxypropane imide amide]
